According to the supplement of paper PMC10307832:

Tests used:
Experiment in all cases: relative viability (nuclei count vs DMSO), 5 days (fraction); higher = more cells survive
Veliparib + Bortezomib = compound: C[C@]1(c2nc3c(C(N)=O)cccc3[nH]2)CCCN1 [Veliparib] + CC(C)C[C@H](NC(=O)[C@H](Cc1ccccc1)NC(=O)c1cnccn1)B(O)O [Bortezomib] (partner 0.002 µM)
Procedure, shortened: (§1)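 For relative viability, nuclei counts in treated wells were divided by those in vehicle wells. Lung cancer cell lines had been pin-tool dosed in 1536-well plates the day after seeding and cultured for 5 days, then fixed and stained in one step (final 0.05% Triton X-100, 1% formaldehyde, 1 ug/ml Hoechst) and imaged at 4×. Doses were one drug alone or a fixed anchor-drug dose plus five library-drug doses (not always all listed) in √10 steps, and values are duplicate-plate medians.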

Veliparib + Crizotinib = compound: C[C@]1(c2nc3c(C(N)=O)cccc3[nH]2)CCCN1 [Veliparib] + C[C@@H](Oc1cc(-c2cnn(C3CCNCC3)c2)cnc1N)c1c(Cl)ccc(F)c1Cl [Crizotinib] (partner 1 µM)
Procedure, shortened: as §1

Veliparib + Decitabine = compound: C[C@]1(c2nc3c(C(N)=O)cccc3[nH]2)CCCN1 [Veliparib] + Nc1ncn([C@H]2C[C@H](O)[C@@H](CO)O2)c(=O)n1 [Decitabine] (partner 2 µM)
Procedure, shortened: as §1

Veliparib + Olaparib = compound: C[C@]1(c2nc3c(C(N)=O)cccc3[nH]2)CCCN1 [Veliparib] + O=C(c1cc(Cc2n[nH]c(=O)c3ccccc23)ccc1F)N1CCN(C(=O)C2CC2)CC1 [Olaparib] (partner 8 µM)
Procedure, shortened: as §1

Which results are given for SW 1573?
relative viability (Veliparib + Bortezomib; first compound 0.02 µM): 0.951; relative viability (Veliparib + Bortezomib; first compound 0.06325 µM): 0.982; relative viability (Veliparib + Bortezomib; first compound 0.2 µM): 1.07; relative viability (Veliparib + Bortezomib; first compound 0.6325 µM): 0.862; relative viability (Veliparib + Bortezomib; first compound 2 µM): 1.06; relative viability (Veliparib + Crizotinib; first compound 0.02 µM): 0.986; relative viability (Veliparib + Crizotinib; first compound 0.06325 µM): 0.629; relative viability (Veliparib + Crizotinib; first compound 0.2 µM): 0.781; relative viability (Veliparib + Crizotinib; first compound 0.6325 µM): 0.85; relative viability (Veliparib + Crizotinib; first compound 2 µM): 0.79; relative viability (Veliparib + Decitabine; first compound 0.02 µM): 0.29; relative viability (Veliparib + Decitabine; first compound 0.06325 µM): 0.289; relative viability (Veliparib + Decitabine; first compound 0.2 µM): 0.287; relative viability (Veliparib + Decitabine; first compound 0.6325 µM): 0.361; relative viability (Veliparib + Decitabine; first compound 2 µM): 0.298; relative viability (Veliparib + Olaparib; first compound 0.02 µM): 0.57; relative viability (Veliparib + Olaparib; first compound 0.06325 µM): 0.428; relative viability (Veliparib + Olaparib; first compound 0.2 µM): 0.464; relative viability (Veliparib + Olaparib; first compound 0.6325 µM): 0.42; relative viability (Veliparib + Olaparib; first compound 2 µM): 0.442
